# Legend:
# MRE11a, RAD50 and NBN = experiment: Target validation in HUVEC (Western blot, qPCR); format: cell-based, human; conditions: qPCR and immunofluorescence
# Experimental: After treatment, cells were washed in phosphate-buffered saline (PBS) and prepared in RIPA lysis buffer (Sigma) supplemented with Complete Protease inhibitor cocktail (ROCHE) and Phosphatase inhibitors cocktail 2 and 3 (Sigma). Cells were harvested by scraping, and proteins were analyzed by Western blot. Equivalent amounts of protein were loaded on a 4-12% gradient SDS-polyacrylamide gel (BioRAD) and transferred for 30 min to a TransBlot turbo (BioRAD) nitrocellulose membrane. Membranes were blocked in 5% milk or 3% BSA and incubated with antibodies as indicated: Mre11a (Cell Signaling, 4847, 1:1000), RAD50 (Cell Signaling, 3427, 1:1000), NBS1 (Cell Signaling, 14956, 1:500), p-ATM (Cell Signaling, 4526, 1:500), H2AX (Abcam 11174, 1:500), p21 (Cell Signaling, 2947, 1:1000), P-Rb (Cell Signaling, 9301, 1:500), ERK1/2 (Cell Signaling, 9102, 1:1000), P-ERK1/2 (9101, 1:1000). β-actin (Sigma, A5316, 1:10,000 1 h RT) was used as housekeeping controls for the total levels of protein loaded. Membranes were washed in TBST and incubated with secondary antibodies from Licor Biosciences were used goat anti mouse 925-68020 (1:15,000) and goat anti rabbit 925-32211 (1:15,000). […]
# Total RNA and microRNA were isolated using miRVana microRNA isolation kit (Ambion). […] The relative quantification of gene expression was determined using the 2-DDCtmethod. […]
# p21 = experiment: Western blot of p21 in HUVEC; format: cell-based, human; conditions: HUVEC expressing the miRNAs
# Experimental: After treatment, cells were washed in phosphate-buffered saline (PBS) and prepared in RIPA lysis buffer (Sigma) supplemented with Complete Protease inhibitor cocktail (ROCHE) and Phosphatase inhibitors cocktail 2 and 3 (Sigma). Cells were harvested by scraping, and proteins were analyzed by Western blot. Equivalent amounts of protein were loaded on a 4-12% gradient SDS-polyacrylamide gel (BioRAD) and transferred for 30 min to a TransBlot turbo (BioRAD) nitrocellulose membrane. Membranes were blocked in 5% milk or 3% BSA and incubated with antibodies as indicated: Mre11a (Cell Signaling, 4847, 1:1000), RAD50 (Cell Signaling, 3427, 1:1000), NBS1 (Cell Signaling, 14956, 1:500), p-ATM (Cell Signaling, 4526, 1:500), H2AX (Abcam 11174, 1:500), p21 (Cell Signaling, 2947, 1:1000), P-Rb (Cell Signaling, 9301, 1:500), ERK1/2 (Cell Signaling, 9102, 1:1000), P-ERK1/2 (9101, 1:1000). β-actin (Sigma, A5316, 1:10,000 1 h RT) was used as housekeeping controls for the total levels of protein loaded. Membranes were washed in TBST and incubated with secondary antibodies from Licor Biosciences were used goat anti mouse 925-68020 (1:15,000) and goat anti rabbit 925-32211 (1:15,000). Blots were scanned on the Licor Odyssey scanner according to manufacturer's instructions.
# HUVEC [1] = experiment: HUVEC apoptosis; format: cell-based, human; conditions: overexpression for 48 hours
# HUVEC [2] = experiment: 3-D angiogenic sprouting assay (fibrin bead); format: cell-based; conditions: 3D-fibrinogen assay, co-culture with human aortic smooth muscle cells
# Experimental: Early passage HUVECs were coated on cytodex-3 (GE Healthcare) beads at a density of 10 million cells/40 μl beads and incubated in suspension for 3-4 hours with gentle mixing every hour. They were plated on TC treated 6 well dishes overnight and resuspended in a 2 mg/ml fibrin gel with 200,000 human smooth muscle cells. The gel was allowed to polymerize and complete EGM-2 media was added. Sprouts were visualized from days 3-4 via confocal imaging after overnight incubation with FITC labeled Ulex europaeus lectin (Vector labs). Immunofluorescence imaging was performed on a Yokogawa CSU-W1 spinning disk confocal microscope with 20 0.45 Plan Fluor objective (Nikon).
# ERK = experiment: VEGF-dependent ERK phosphorylation (western blot); format: cell-based, human; conditions: HUVECs treated with VEGF (10 min)
# [3] = test system: 3'-UTRs of MRE11a, RAD50, and NBN; experiment: 3'-UTR luciferase reporter assay in HEK-293T cells; format: cell-based, human; conditions: 24 hours cotransfection
# Experimental: To determine targets of miR-99b and miR-494, the RNAs were ectopically expressed in HUVECs. Targets were analyzed using a DNA damage array 24 hours after transfection. Three common targets for miR-99b and miR-494 were identified: MRE11a, RAD50 and NBN. These three proteins form the MRN complex which is involved in homologous repair and non-homologous end joining. mRNA targets of miR-494 and miR-99b were also assessed using a miR-TRAP assay. […] Finally, the 3′-UTRs of MRE11a, RAD50, and NBN were cloned into luciferase reporter vectors. The luciferase vectors were contrasfected with miR-494 and miR99b into HEK-293T cells for 24 hours.
# MRE11a Luciferase-3-UTR plasmid was purchased from SwitchGear Genomics. RAD50 and NBN luciferase constructs were purchased as pmiR-REPORT vector (Ambion). Luciferase assay reagents were purchased from Switch Gear Genomics and Promega.
# Cells were transfected at 50-60% confluence using standard forward transfection protocols using RNAimax reagent (Life Technologies) for miRs/siRNAs and Lipofectamine 2000 for plasmid or plasmid RNA dual transfections. Typically 50 nM RNA and […] plasmid DNA were used for transfections. Target protectors were transfected at a concentration of 50 nM or equivalent to the miR amounts.
# HUVEC [4] = experiment: HUVEC cell proliferation assay; format: cell-based, human; conditions: for proliferation relative to controls: HUVEC, overexpression for 48 hours; for proliferation in old HUVECs: high-passage HUVEC
# HUVEC [5] = experiment: β-Gal senescence assay; format: cell-based, human; conditions: for senescence (β-galactosidase positive cells): 48 hours after transfection, relative to controls; for senescence phenotype in old HUVECs: high-passage HUVEC, β-galactosidase assay
# Text: After this time cells were washed whit cold PBS and then stain for β-galactosidase activity following manufacture protocol (Senescence Cells Histochemical Staining Kit, Sigma).
# CD44 = CD44 expression (Human Senescence gene array); format: cell-based; conditions: HUVEC
# Experimental: (§1) Total RNA and microRNA were isolated using miRVana microRNA isolation kit (Ambion). Reverse transcription was performed using TaqMan™ Advanced cDNA Synthesis Kit (Life Tech) according to the manufacture instructions. RT-PCR was performed using multiplexed TaqMan primers (Applied Biosystems). The relative quantification of gene expression was determined using the 2-DDCtmethod. Using this method, we obtained the fold changes in gene expression normalized to an internal control gene, GAPDH or U6 snRNA, respectively. A DNA damage array (LifeTech) was used for targeting analysis and a Human Cellular Senescence array (SA Biosciences) was used for senescence phenotype profiling.
# CD44 expression was analyzed by flow cytometry in HUVECs transfected with miR-494 for 48 hours. Cells were washed in PBS and tripsinazed. Cells were incubated in blocking solution (0.5% BSA/10% goat serum) for 30 min and 1 hour in primary antibody-PEcy7 conjugated (CD44, BD, 560533) prepared in blocking solution. Then cells were washed in PBS 3×. Cells were analyzed in a CANTOII equipment.
# [6] = test system: telomerase activity in HUVEC; experiment: Telomerase activity assay; format: cell-based, human; conditions: 48 hours of ectopic expression
# Experimental: […] Cells were lysed and processed according to the manufacturer's instructions (Quantitative Telomerase Detection Kit, Allied Biotech). The telomerase activity in the cell extract was determined through its ability to synthesize telomeric repeats onto an oligonucleotide substrate. The resulting products were subsequently amplified using the polymerase chain reaction (PCR).
# [7] = test system: MRE11a, RAD50, and NBN mRNAs; experiment: miR-TRAP/RISC TRAP assay; format: cell-based; conditions: 293 T cells, 24 hours
# Experimental: 293 T cells were co-transfected with a plasmid coding for a flag-tagged dominant negative […] mutant (Clontech) along with a control mimic, miR-99b or miR-494 mimic according to kit instructions. Twenty-four hours later the RNA protein complexes were crosslinked and the RISC complex was immunoprecipitated using an anti-FLAG antibody and RNA was isolated for quantitative real-time PCR of target genes. The fold enrichment was calculated using pre and post IP controls as well as normalization to the control mimic pull-downs.
# [8] = test system: VEGF-early gene signature; experiment: VEGF-early response gene expression; format: cell-based, human; conditions: HUVEC, VEGF 50 ng/ml
# Experimental: HUVECs were transfected for a total of 48 hours. At 24 hours cells were starved overnight and then treated 3 hours with VEGF (50 ng/ml). Graphs depict mean mRNA levels+SEM.
# as §1
# murine 4T1 tumors = experiment: Orthotopic 4T1 tumor growth; format: in vivo; conditions: implanted orthotopically in Balb/C mice
# Text: FIG. 5C is a graph of 4T1 tumor weights on day 21 after orthotopic mammary fat pad implantation of either control or miR-494-3p transfected tumors. N=8 mice per group and * indicates P<0.05.
# breast cancer cell = experiment: Breast cancer cell proliferation in 2D and 3D assays; format: cell-based; conditions: ectopic expression
# [9] = test system: Matrigel plugs in nu/nu mice; experiment: Matrigel plug angiogenesis assay in vivo
# Experimental: as §1
# In some experiments, CD31a and Mre11a were visualized using immunofluorescence staining from OCT sections of tumor tissue. Slides were fixed with 4% PFA and stained overnight for CD31, Mre11a, or ASMC. Imaging was performed on a Nikon Spectral C1 confocal microscope (Nikon C1si with EZC1 acquisition software, Nikon Instruments) with Plan Apo 10×/0.45 air, Plan Apo 20×/0.75 air, and Plan Apo 60×/1.40 oil objective lenses (Nikon). Some immunofluorescence imaging was performed on a Yokogawa CSU-W1 spinning disk confocal microscope with 20 0.45 Plan Fluor objective (Nikon). All images were taken with a channel series. Images were analysed with Image J software for quantitation.
# Immune-compromised 8-10 week old female nu/nu mice purchased from Jackson Labs. Growth factor reduced Matrigel (BD) with 400 ng ml 1 recombinant human bFGF (Millipore) was injected subcutaneously in nu/nu mice. Mice were injected i.v with 7C1-nanoparticles containing miR-494 or control miR (0.7 mg/kg, i.v) 3 or 4 days after plugs were implanted. At day 7 mice were harvest and lysed to obtained RNA or frozen in OCT for tissue staining.
Compound,"protein expression of target mRNAs (MRE11a, RAD50, NBN) (MRE11a, RAD50 and NBN)",expression of cell cycle regulator p21 (p21),apoptosis (HUVEC [1]),sprouting angiogenesis (HUVEC [2]),phosphorylation of ERK (ERK),luciferase expression from 3'-UTR reporter vectors [3],proliferation relative to controls (HUVEC [4]),proliferation in old HUVECs (HUVEC [4]),senescence (β-galactosidase positive cells) (HUVEC [5]; HUVEC),senescence phenotype in old HUVECs (HUVEC [5]),"expression of CD44, a marker of senescence (CD44)",telomerase activity [6],enrichment of target mRNAs in RISC pulldown relative to controls [7],also measured
"miR-99b: Human miR-99b-5p (SEQ ID NO: 3), used as miR mimic (sense CACCCGUAGAACCGACCUUGCG; listed as RNA, chemistry not given here; listed as Homo sapiens)",Blocking of protein expression,greater expression,no effect on apoptosis,inhibited sprouting angiogenesis,lower rate of phosphorylation of ERK,Significantly less luciferase expression,less proliferation,without dramatically changing proliferation,higher number of β-galactosidase positive cells,restored a senescence phenotype,induced expression of CD44,Impaired telomerase activity,only MRE11a was enriched,"sprouting angiogenesis (HUVEC [2]; listed as miR-99b-5p): inhibit sprouting angiogenesis; senescence (β-galactosidase positive cells) (HUVEC [5]; HUVEC, listed as miR-99b-5p): lead to endothelial senescence; telomerase activity ([6]; listed as miR-99b-5p): impairing telomerase function; specific-VEGF-early gene signature [8]: block a specific-VEGF-early gene signature"
"miR-494: Human miR-494-3p (SEQ ID NO: 1), used as miR mimic; in vivo delivered in 7C1 nanoparticles (sense UGAAACAUACACGGGAAACCUC; delivered in vivo in 7C1 nanoparticles, further chemistry not given here; listed as Homo sapiens)",Blocking of protein expression,greater expression,no effect on apoptosis,inhibited sprouting angiogenesis,–,Significantly less luciferase expression,less proliferation,without dramatically changing proliferation,higher number of β-galactosidase positive cells,restored a senescence phenotype,induced expression of CD44,Impaired telomerase activity,"enrichment of all of MRE11a, RAD50, and NBN","growth of 4T1 tumors (murine 4T1 tumors): decreased the growth; sprouting angiogenesis (HUVEC [2]; listed as miR-494-3p): inhibit sprouting angiogenesis; breast cancer cell proliferation (breast cancer cell): diminished breast cancer cell proliferation; senescence (β-galactosidase positive cells) (HUVEC [5]; HUVEC, listed as miR-494-3p): lead to endothelial senescence; telomerase activity ([6]; listed as miR-494-3p): impairing telomerase function; Pecam1 mRNA expression in plugs relative to controls ([9]; Matrigel plugs, 7C1 nanoparticles): lower expression; less CD31 staining relative to controls ([9]; Matrigel plugs, miR delivered with endothelial targeted nanoparticle 7C1, 0.7 mg/kg i.v.): 50%; Mre11a mRNA expression in plugs ([9]; RNA isolated from Matrigel plugs, 7C1 nanoparticles): significantly less Mre11a expression"
"miR-21-3p: Human miR-21-3p (SEQ ID NO: 2), used as miR mimic (sense CAACACCAGUCGAUGGGCUGU; listed as RNA, chemistry not given here; listed as Homo sapiens)",–,–,–,inhibit sprouting angiogenesis,–,–,–,–,lead to endothelial senescence,–,–,impairing telomerase function,–,–
"N=C1NC(=O)/C(=C/c2ccc(O)cc2)S1 [Mirin-1, reference compound]",–,–,–,–,decreased ERK phosphorylation,–,–,–,–,–,–,–,–,"senescence (HUVEC [5]; HUVEC, 50 uM, after 24 hours): induce senescence"
